# Measurements as given in patent publication US10220029B2, “Pharmaceutical composition comprising glutarimide derivatives and use thereof in the treatment of eosinophilic diseases” (OBSCHESTVO S ORGANICHENNOI OTVETSTVENNOSTIYU …, priority 2013, dated 2019).
# Marks after values point to notes of the source that are not given here.
# How the values were obtained:
# [1] = tested on: model of bronchial asthma in guinea pigs; assay: Content of cell elements in the blood in the model of bronchial asthma in guinea pigs; type: in vivo, guinea pig; settings: Table 6 Experiment No. 1, 10 times, n = 8
# Method: (§1) Bronchial asthma in guinea pigs was induced by a standard method [Ricciardolo F L, Nijkamp F, De Rose V, Folkerts G. The guinea pig as an animal model for asthma// Current Drug Targets. 2008 June; 9(6):452-65]. The animals were immunized by one parenteral administration of 0.5 mL of a solution comprising 100 μg/mL ovalbumin (Sigma) and 100 mg/mL aluminium hydroxide. Intact animals received a physiological saline solution in an amount of 0.5 mL.
# (§2) On days 29, 30 and 31, hyperactivity of the respiratory airways was provoked by inhalation administration of ovalbumin in ascending concentrations of 0.1, 0.3, and 0.5 mg/mL on days 1, 2, and 3 of the provocation, respectively. The inhalation lasted 5 minutes or until asphyxia symptoms became apparent (fall to one side). On day 32, the animals received a challenging dose of ovalbumin (1 mg/mL) for 5 minutes, while assessing a bronchospastic reaction.
# (§3) The studied compounds were administered to the animals once daily every day for 6 or 10 days; the administration was terminated two days before the administration of the challenging dose of antigen.
# The bronchoalveolar lavage (BAL) and cardiac cavity blood were derived from the animals 24 hours after administration of the challenging dose. The BAL was collected under anesthesia by lavaging the lungs with 5 mL of a physiological saline solution heated to 37° C. through the trachea, using a syringe dosing device.
# The blood was analyzed with a hemocytometer to determine leykoformula.
# (§4) The study comprised 3 experiments, wherein the first one was directed to the evaluation of the effect of claimed compounds 1-6 on the cell composition of the BAL, the second and the third experiments were aimed at evaluating the effect of compounds 1 and 2 on the cell composition of the BAL, the cell composition of the blood, and on the bronchospasm severity.
# [2] = tested on: model of bronchial asthma in guinea pigs; assay: Severity of bronchospasm in the model of bronchial asthma in guinea pigs; type: in vivo, guinea pig; settings: Experiment No. 1, 10 times, n = 8
# Method: as §1, §2, §3
# The bronchospastic reaction was assessed by a change in the rate and depth of the respiratory movements and by the asphyxia symptom such as fall to one side. Spirogram was registered by laboratory experimental equipment (ADInstruments, Australia), using a base recording station (PowerLab 8sp.) and software LabCart. The registration was made using airflow sensors for laboratory animals and a spirograph with an integrated amplifier (ADInstruments).
# as §4
# [3] = tested on: model of sephadex-induced eosinophilic lung inflammation in rats; assay: Content of cell elements in BAL in the model of sephadex-induced eosinophilic lung inflammation in rats; type: in vivo, male Wistar rats; settings: Table 8, four times, BAL 48 hours after sephadex, n = 10
# Method: The model of sephadex-induced eosinophilic lung inflammation in rats was realized by a standard method [Evaldsson C, Rydén I, Uppugunduri S. Isomaltitol exacerbates neutrophilia but reduces eosinophilia: new insights into the sephadex model of lung inflammation//Int Arch Allergy Immunol. 2011; 154(4):286-94]. Sephadex G-200 (Pharmacia, Sweden) was administered one time by inhalation to male Wistar rats at a dose of 5 mg/kg. The studied compounds were administered to the animals by the intragastric route four times: 24 hours and 1 hour before and 24 hours and 45 hours after administration of sephadex. The reference preparation, budesonide, was administered according to the same scheme, by inhalation at a dose of 0.5 mg/kg. Bronchoalveolar lavage was taken 48 hours after the inhalation of sephadex, and the total lymphocyte count and leukocyte formula in the lavage were determined. The number of rats in a group was 7 to 10.
# [4] = tested on: model of atopic dermatitis in mice; assay: Response index in DNCB-induced atopic (allopathic) dermatitis in mice; type: in vivo, male Balb/c mice; settings: n = 12
# Method: The model of allopathic dermatitis was realized by a standard method [Mechanism of dinitrochlorobenzene-induced dermatitis in mice: role of specific antibodies in pathogenesis//PLoS One. 2009; 4(11)].
# On days 0 and 12 of the study, 100 μL of a 2% solution of 1-chloro-2,4-dinitrobenzene (DNCB, Sigma-Aldrich, US) in 95% ethanol was applied to shaved sites in the backs of male Balb/c mice. On day 17 of the study, to the right “studied” ear of the animals, 20 μL of the alcohol solution of 2% DNCB was applied two times with a one-hour interval. The studied compound and the reference preparation, dexamethasone, were administered by the intragastric route once daily on days 8-17 of the study.
# On day 18 of the study, the animals were euthanized in a CO2 camera. The weights of the “studied” and “control” ears were measured. A response index (RI) expressed in percentage of a difference in the weights of the “studied” and “control” ears was calculated.
structure (smiles),measurement,setting,value
"O=C1CCCC(=O)N1CCc1cnc[nH]1 [Compound 1, 1-(2-(1H-imidazol-4-yl)ethyl)piperidine-2,6-dione]",Banded neutrophils in the blood,[1]; 0.045 mg/kg,0.31 ± 0.10 10^9/L
same,Basophils in the blood,[1]; 0.045 mg/kg,0 ± 0 10^9/L
same,Cytosis in the blood,[1]; 0.045 mg/kg,9.03 ± 1.40& 10^9/L
same,Eosinophils in the blood,[1]; 0.045 mg/kg,0.19 ± 0.04& 10^9/L
same,Lymphocytes in the blood,[1]; 0.045 mg/kg,4.80 ± 0.84* 10^9/L
same,Monocytes in the blood,[1]; 0.045 mg/kg,0.29 ± 0.08 10^9/L
same,Segmented neutrophils in the blood,[1]; 0.045 mg/kg,2.92 ± 0.65 10^9/L
same,Banded neutrophils in the blood,[1]; 0.14 mg/kg,0.19 ± 0.05& 10^9/L
same,Basophils in the blood,[1]; 0.14 mg/kg,0 ± 0 10^9/L
same,Cytosis in the blood,[1]; 0.14 mg/kg,9.11 ± 1.07*& 10^9/L
same,Eosinophils in the blood,[1]; 0.14 mg/kg,0.09 ± 0.03& 10^9/L
same,Lymphocytes in the blood,[1]; 0.14 mg/kg,5.25 ± 0.89* 10^9/L
same,Monocytes in the blood,[1]; 0.14 mg/kg,0.33 ± 0.06* 10^9/L
same,Segmented neutrophils in the blood,[1]; 0.14 mg/kg,2.23 ± 0.58& 10^9/L
same,Banded neutrophils in the blood,[1]; 14 mg/kg,0.27 ± 0.06* 10^9/L
same,Basophils in the blood,[1]; 14 mg/kg,0 ± 0 10^9/L
same,Cytosis in the blood,[1]; 14 mg/kg,8.90 ± 0.25*& 10^9/L
same,Eosinophils in the blood,[1]; 14 mg/kg,0.13 ± 0.04& 10^9/L
same,Lymphocytes in the blood,[1]; 14 mg/kg,4.45 ± 0.25* 10^9/L
same,Monocytes in the blood,[1]; 14 mg/kg,0.33 ± 0.06* 10^9/L
same,Segmented neutrophils in the blood,[1]; 14 mg/kg,3.66 ± 0.22* 10^9/L
same,"The number of animals with moderate bronchospasm (without acute phase, with subacute phase, with breath management)",[2]; 0.045 mg/kg,1
same,"The number of animals with moderate bronchospasm (without acute phase, with subacute phase, without breath management)",[2]; 0.045 mg/kg,2
same,The number of animals with severe bronchospasm (in acute and subacute phase),[2]; 0.045 mg/kg,0
same,The number of animals without bronchospasm,[2]; 0.045 mg/kg,5
same,"The number of animals with moderate bronchospasm (without acute phase, with subacute phase, with breath management)",[2]; 0.14 mg/kg,1
same,"The number of animals with moderate bronchospasm (without acute phase, with subacute phase, without breath management)",[2]; 0.14 mg/kg,0
same,The number of animals with severe bronchospasm (in acute and subacute phase),[2]; 0.14 mg/kg,0
same,The number of animals without bronchospasm,[2]; 0.14 mg/kg,7
same,"The number of animals with moderate bronchospasm (without acute phase, with subacute phase, with breath management)",[2]; 14 mg/kg,0
same,"The number of animals with moderate bronchospasm (without acute phase, with subacute phase, without breath management)",[2]; 14 mg/kg,2
same,The number of animals with severe bronchospasm (in acute and subacute phase),[2]; 14 mg/kg,1
same,The number of animals without bronchospasm,[2]; 14 mg/kg,5
same,"Eosinophils, content of cell elements in 1 μL of BAL",[3]; 0.06 mg/kg intragastric,118 ± 27*& in 1 μL of BAL
same,"Leukocytes, content of cell elements in 1 μL of BAL",[3]; 0.06 mg/kg intragastric,2500 ± 307 in 1 μL of BAL
same,"Lymphocytes, content of cell elements in 1 μL of BAL",[3]; 0.06 mg/kg intragastric,128 ± 48 in 1 μL of BAL
same,"Macrophages, content of cell elements in 1 μL of BAL",[3]; 0.06 mg/kg intragastric,1417 ± 131 in 1 μL of BAL
same,"Neutrophils, content of cell elements in 1 μL of BAL",[3]; 0.06 mg/kg intragastric,837 ± 231 in 1 μL of BAL
same,"Eosinophils, content of cell elements in 1 μL of BAL",[3]; 0.18 mg/kg intragastric,174 ± 64*& in 1 μL of BAL
same,"Leukocytes, content of cell elements in 1 μL of BAL",[3]; 0.18 mg/kg intragastric,2665 ± 455 in 1 μL of BAL
same,"Lymphocytes, content of cell elements in 1 μL of BAL",[3]; 0.18 mg/kg intragastric,143 ± 54 in 1 μL of BAL
same,"Macrophages, content of cell elements in 1 μL of BAL",[3]; 0.18 mg/kg intragastric,1661 ± 260 in 1 μL of BAL
same,"Neutrophils, content of cell elements in 1 μL of BAL",[3]; 0.18 mg/kg intragastric,597 ± 168 in 1 μL of BAL
same,"Eosinophils, content of cell elements in 1 μL of BAL",[3]; 0.54 mg/kg intragastric,126 ± 43*& in 1 μL of BAL
same,"Leukocytes, content of cell elements in 1 μL of BAL",[3]; 0.54 mg/kg intragastric,2120 ± 218*& in 1 μL of BAL
same,"Lymphocytes, content of cell elements in 1 μL of BAL",[3]; 0.54 mg/kg intragastric,196 ± 63 in 1 μL of BAL
same,"Macrophages, content of cell elements in 1 μL of BAL",[3]; 0.54 mg/kg intragastric,1446 ± 113 in 1 μL of BAL
same,"Neutrophils, content of cell elements in 1 μL of BAL",[3]; 0.54 mg/kg intragastric,352 ± 135 in 1 μL of BAL
same,"Eosinophils, content of cell elements in 1 μL of BAL",[3]; 1.8 mg/kg intragastric,129 ± 44*& in 1 μL of BAL
same,"Leukocytes, content of cell elements in 1 μL of BAL",[3]; 1.8 mg/kg intragastric,1915 ± 250*& in 1 μL of BAL
same,"Lymphocytes, content of cell elements in 1 μL of BAL",[3]; 1.8 mg/kg intragastric,122 ± 49 in 1 μL of BAL
same,"Macrophages, content of cell elements in 1 μL of BAL",[3]; 1.8 mg/kg intragastric,1214 ± 130 in 1 μL of BAL
same,"Neutrophils, content of cell elements in 1 μL of BAL",[3]; 1.8 mg/kg intragastric,451 ± 149 in 1 μL of BAL
same,"Eosinophils, content of cell elements in 1 μL of BAL",[3]; 5.4 mg/kg intragastric,152 ± 56*& in 1 μL of BAL
same,"Leukocytes, content of cell elements in 1 μL of BAL",[3]; 5.4 mg/kg intragastric,2340 ± 322 in 1 μL of BAL
same,"Lymphocytes, content of cell elements in 1 μL of BAL",[3]; 5.4 mg/kg intragastric,170 ± 45 in 1 μL of BAL
same,"Macrophages, content of cell elements in 1 μL of BAL",[3]; 5.4 mg/kg intragastric,1525 ± 199 in 1 μL of BAL
same,"Neutrophils, content of cell elements in 1 μL of BAL",[3]; 5.4 mg/kg intragastric,492 ± 129 in 1 μL of BAL
same,"Eosinophils, content of cell elements in 1 μL of BAL",[3]; 18 mg/kg intragastric,69 ± 22*& in 1 μL of BAL
same,"Leukocytes, content of cell elements in 1 μL of BAL",[3]; 18 mg/kg intragastric,2135 ± 205*& in 1 μL of BAL
same,"Lymphocytes, content of cell elements in 1 μL of BAL",[3]; 18 mg/kg intragastric,168 ± 44 in 1 μL of BAL
same,"Macrophages, content of cell elements in 1 μL of BAL",[3]; 18 mg/kg intragastric,1601 ± 134 in 1 μL of BAL
same,"Neutrophils, content of cell elements in 1 μL of BAL",[3]; 18 mg/kg intragastric,297 ± 89*& in 1 μL of BAL
same,Response index (%),[4]; 0.3 mg/kg intragastric once daily on days 8-17,74.4 ± 7.3*& %
same,Response index (%),[4]; 3 mg/kg intragastric once daily on days 8-17,69.5 ± 8.2*& %
same,Response index (%),[4]; 30 mg/kg intragastric once daily on days 8-17,69.1 ± 8*& %
